# US4791059A, “Process for preparing lipase” (Suntory Limited, priority 1984, dated 1988)
# System: lipase
# Assay: Inhibition and activation of lipase activity by divalent metal ions, SH reagent and surface-active agents
# Format: biochemical, Staphylococcus capitis
# Experimental: The effects of the divalent metal ions, SH reagent and surface-active agents on the lipase activity were evaluated by measuring the residual activities after treatment. […] The lipase activity is increased 3-fold to 5-fold by the presence of Ca^2+.
# The lipase activity is more than 90% inhibited by 2 mM sodium laurylsulfate (SDS), 2 mM iodine acetamide, 0.1% Tween 20, 0.1% Tween 80, and 0.1% Triton X-100.
# One milliliter of olive oil is added to a test tube (.phi.25×200 mm) containing 5 ml of a reaction mixture consisting of 25 mM of a Tris-HCl buffer (pH 8.0) and 10 mM of CaCl2, the tube is stirred vigorously with a mixer, and 0.5 ml of an enzyme solution is added to the tube. The reaction is carried out during which the tube is shaken at 300 rpm on a reciprocating shaker. The reaction is stopped on the addition of 20 ml of ethanol and the fatty acids formed are titrated with 0.05 N of an aqueous sodium hydroxide solution. The control values are likewise determined by titrating the solution obtained by first adding ethanol to a reaction mixture of the composition and then adding an enzyme solution to the same. According to a proposal by Enzyme Nomenclature; recommendations (1978) of the nomenclature committee of the International Union of Biochemistry (I.U.B.), Academic Press, a unit of lipase activity is defined as that amount of lipase required to liberate 1 μmole of fatty acids per minute under reaction conditions.
Compound,inhibition of lipase activity (residual activity after treatment) (10 mM),further results
[Ca+2] [Ca^2+],No inhibition,–
[Cu+2] [Cu^2+],No inhibition,–
[Fe+2] [Fe^2+],–,inhibition of lipase activity (residual activity after treatment) (1 mM): No inhibition
[Mg+2] [Mg^2+],No inhibition,–
[Mn+2] [Mn^2+],No inhibition,–
CCCCCCCC/C=C\CCCCCCCC(=O)OCCOCC(OCCO)C1OCC(OCCO)C1OCCO (stereo not shown) [Tween 80],–,inhibition of lipase activity (0.1%): more than 90%
[Zn+2] [Zn^2+],No inhibition,–
NC(=O)CI [iodine acetamide],–,inhibition of lipase activity (2 mM): more than 90%
"CCCCCCCCCCCCOS(=O)(=O)[O-].[Na+] [sodium laurylsulfate (SDS), sodium laurylsulfate]",–,inhibition of lipase activity (2 mM): more than 90%
Triton X-100,–,inhibition of lipase activity (0.1%): more than 90%
